Values of other authors, collected in US11826492B2, “Intratumoral drug delivery materials and methods for treating breast cancer” (BIOTRONIK AG, priority 2016, dated 2023).
Where two headings read alike, the source gives them in different places.

Settings: Porcine Coronary Arteries

| Normalized Uptake (ng drug/mg tissue/μg drug on balloon) (3 days) [ng/mg/µg] | Normalized Uptake (ng drug/mg tissue/μg drug on balloon) (7 days) [ng/mg/µg] | SMILES |
| --- | --- | --- |
| 0.02 |  | CO[C@H]1C[C@@H]2CC[C@@H](C)[C@@](O)(O2)C(=O)C(=O)N2CCCC[C@H]2C(=O)O[C@H]([C@H](C)C[C@@H]2CC[C@@H](OCCO)[C@H](OC)C2)CC(=O)[C@H](C)/C=C(\C)[C@@H](O)[C@@H](OC)C(=O)[C@H](C)C[C@H](C)/C=C/C=C/C=C/1C [US 2014/0046254 Everolimus, Everolimus] |
|  | 0.04 | CO[C@H]1C[C@@H]2CC[C@@H](C)[C@@](O)(O2)C(=O)C(=O)N2CCCC[C@H]2C(=O)O[C@H]([C@H](C)C[C@@H]2CC[C@H](n3cnnn3)[C@H](OC)C2)CC(=O)[C@H](C)/C=C(\C)[C@@H](O)[C@@H](OC)C(=O)[C@H](C)C[C@H](C)/C=C/C=C/C=C/1C [US 2014/0046254 Zotarolimus, Zotarolimus] |
